EP2346328B1, “USE OF COSTIC ACID OR EXTRACTS OF DITTRICHIA VISCOSA AGAINST VARROA DESTRUCTOR” (Katerinopoulos, E. Haralambos, priority 2008, dated 2009)

How the values were obtained:
V. destructor = assay: In vivo vial experiments with V. destructor: mite mortality on exposure to treated filter paper; set-up: species or system Varroa destructor
Experimental: In vivo Experiments with V. destructor. The mites (V. destructor) were collected from colonies of A. mellifera. For mite collection two different methods were used: The first method involved removal of the mites from infected adult bees using a soft brush with the help of a stereoscope. In method b) infected adult honeybees were transferred directly from bee frames into a wire-screen cylinder. Then the cylinder was placed inside a second Plexiglas cylinder and CO2 was released for 5 min with a flow rate of 5 l/min causing anaesthesia to the mites (as well as to the bees). The whole apparatus was then shaken several times to separate the mites from the bees. In a few minutes they had recovered from the effect of the anaesthesia.^39
Using a stereoscope binocular set varroa was placed in 20 mL glass vials. Stock solutions of the extraction materials were prepared in acetone in 10 mg/mL concentrations. In each experiment 20, 60, or 100 microliter aliquots of the stock solution were placed on filter paper adjusted to the cups of 20 ml vials, each containing five living mites. Acetone was used in the control experiments which were performed in five replicates. In both cases the solvent was allowed to evaporate before covering the vials. The vials were kept in an incubator at 37 C. Mortality of mites was recorded under a stereoscope binocular set after 5, 8, 12, and 19 hours.

[1] = Cytotoxicity assay in human cells (WST-1); type: cell-based; conditions: HUVEC, 24 h exposure, WST-1 absorbance after 4h and 24h, read-out: concentrations at which not cytotoxic
Experimental: Example 4.Cytotoxicity assays in human cells. Cytotoxicity of costic acid was measured in human umbilical vein endothelial cells (HUVEC), using the Cell Proliferation Reagent WST-1 (Cat. No. 13396300, Roche). The assay was performed according to the instructions protocol. Cells (7500 per well) were exposed to different concentrations of costic acid for 24 h before adding the WST-1 reagent. After 4h and again after 24h the absorbance was measured using an Optimax UV/VIS spectrometer (wavelengths: 440nm and 650nm). Costic acid was not cytotoxic at concentrations up to 230 micromolar.

varroa = assay: Field tests on bee populations: count of dead varroa after spraying; type: in vivo, Varroa destructor; conditions: after ten days; commercial acaricides; sprayed directly on the bees (100 mL per group, oxalic acid 70 mL)
Experimental: Example 5. Field Tests on bee populations. Field test were conducted using 40 bees on each trial at various locations on the island of Crete such as the Lassithi Plateau and the Messara Plains. In the field tests, Group B' extract was used in a solution of 1 g of this extract in 1 ml ethanol that was further diluted with water to a total volume of 1 L. A second solution was prepared as described above, using 2 g of Group B' mixture. For comparison purposes, each bee population was divided in […] groups. Two of these groups were treated with commercial acaricides A fifth, control group, was sprayed with deionized water. As known acaricide preparations were used a) BAYVAROL (active ingredient: Flumethrine) and b) a 4% solution of oxalic acid in 50% sugar solution. The total volume of solutions that were sprayed directly on the bees was 100 mL per group. In the case of the oxalic acid solution, the volume was 70 mL. Dead varroa was collected on a sheet of paper covered with Vaseline and sunflower oil. After ten days, the number of dead varroa was counted. Considering the number of dead varroa in the oxalic acid experiment as 100%, the respective numbers were 60% for either extract preparation, 55% for BAYVAROL and 8% for the control.

## C=C(C(=O)O)C1CCC2(C)CCCC(=C)C2C1 (stereo not drawn) [costic acid]
V. destructor; 10 mg/mL stock solution in acetone, higher concentrations did not enhance activity
  optimal concentration of the stock solution: 60 microliter per vial
V. destructor; Fig. 1, 20 or 60 or 100 microliters of 10mg/mL acetone solutions
  percent mortality of varroa: increases drastically
V. destructor; Fig. 2, activity as a function of time of application
  time after application of the largest activity difference between costic acid and total extract: 8 h
V. destructor; in vivo vial experiments, fractions and isolated components of D. viscosa extract
  acaricidal activity: acaricidal activity rested in costic acid
[1]
  MNTC at 24 h: ≥ 230 µM

## O=C(O)C(=O)O [oxalic acid]
varroa
  number of dead varroa, oxalic acid experiment as 100%: 100%
